The test system of test [1] is TCF/LEF reporter. Conditions: with Wnt3A; cited from earlier work.
In test [2] the test system is LRP6. The test can be described thus: HA-LRP6 expression in HT1080 cells stably transduced with HA-LRP6, Western blot. It counts as cell-based, human. Conditions: HT1080 cells stably transduced with HA-LRP6, 24 h. As for the experimental part: (A) structures of niciosamide and CI-994; (B) HEK293 cells were transfected with Super8XTOPFlash and β galactosidase vectors along with Wnt3A or control vector. After 24 hours incubation, cells were treated with CI-994 at the indicated concentration for 24 hr. The luciferase activity was then measured and normalized to the activity of the β-galactosidase. (C) HT1080 cells stably transduced LRP6 with HA tag were treated with niciosamide and CI-994 at the indicated concentrations for 24 h. The levels of HA-LRP6 were examined by Western blot with anti-HA antibody. (D) Western blots showing the depletion of LRP6 after 2 days of transiently transfection of 50 nM LRP6 siRNA in HEK293 cells. […] The luciferase activity was then measured and normalized to β-galactosidase activity. […]
(A) HT1080 cells stably transduced with human LRP6 with HA tag were treated with niciosamide (1 μM) and other compounds as noted (1 μM) for 24 hr. […] The luciferase activity was then measured and normalized to β-galactosidase activity. […]
Western blotting: Cells in 6-well plates were lysed in 0.5 ml of lysis buffer (phosphate-buffered saline containing 1% Triton X-100, 1× Proteinase inhibitor cocktail Complete, and 1 mM PMSF) at 4° C. for 15 min. Equal quantities of protein were subjected to SDS-PAGE under reducing conditions. […]
In general terms: A western blot detects proteins with antibodies after separation by electrophoresis.

The test system of test [3] is β-catenin. The test can be described thus: Cytosolic free β-catenin level in HEK293 cells. It counts as cell-based. The source says:
Niclosamide (5-chloro-N-[2-chloro-4-nitrophenyl]-2-hydroxy benzamide), an FDA approved antihelminthic drug, suppresses Wnt/β-catenin signaling by inducing Wnt co-receptor LRP6 degradation in cancer cells. […] CI-994 is an orally active class I histone deacetylase (HDAC) inhibitor [37]. CI-994 increased Wnt reporter activity (FIG. 2B) and cytosolic free β-catenin level in HEK293 cells.

Test [4] deals with Wnt/β-catenin signaling. The test can be described thus: Wnt/β-catenin signaling in human iPSC-derived neurons (Western blot, qPCR). It counts as cell-based. As for the experimental part:
Human iPSC-derived neurons were treated with 1015 (0.4 μM) for 48 h, and the mRNA levels of axin2 (B), neuroD1 (C) and SOX2 (D) were determined by qPCR. All the values are the average of three independent experiments with the SE values indicated by error bars. * P<0.05, ** P<0.01 verse corresponding control. (E) Human iPSC-derived neurons were treated with 1015 (0.4 μM) for 48 h, and the levels of phopspho-tau (p-tau) and total tau were determined by Western blotting with specific antibodies AT8 and HT7, respectively. This experiment is a representative of two such experiments performed with similar data.
NeuroD1, a proneural basic helix-loop-helix (bHLH) transcription factor, plays a critical role in CNS development, and is important for survival of neuronal progenitor cells. There is a TCF/LEF regulatory element in the Neurod1 promoter, and NeuroD1 is a specific target of Wnt/β-catenin signaling. […] In addition, 1015 also induces neural stem cell marker SOX2 expression in human iPSC-derived neurons ([…]). Importantly, 1015 suppresses tau phosphorylation in human iPSC-derived neurons (FIG. 16 at D).

Regarding `CC(=O)Nc1ccc(C(=O)Nc2ccccc2N)cc1` [CI-994, 4-(acetylamino)-N-(2-aminophenyl)benzamide, reference compound], in test [1], the “activity of the TCF/LEF reporter” value is given as “able to synergize with Wnt3A to activate”. Besides, the HA-LRP6 expression result in test [2] was “significantly enhanced”. Further, in test [3], the “cytosolic free β-catenin level” value was “increased”.
Turning to `Nc1ccccc1NC(=O)c1ccc(C(=O)NCC2CCN2C2CCCC2)cn1` (stereo not shown) [Compound 1015], in test [4] (0.4 μM, 48 h), the “NeuroD1 expression (mRNA)” value is “significantly enhances”, the “Wnt specific target axin2 expression (mRNA)” value is given as “increases” and the “neural stem cell marker SOX2 expression (mRNA)” value is recorded as “induces”. In addition, in test [4] (24 h), the “Wnt co-receptor LRP6 level” value is listed as “enhances”.

The values are drawn from patent US20220267271A1, “WNT ACTIVATORS AND METHODS OF USE” (MAYO FOUNDATION FOR MEDICAL EDUCATION AND RESEARCH, priority 2019, published 2022).
